In publication PMC10261145, “Ceramide sensing by human SPT-ORMDL complex for establishing sphingolipid homeostasis” (Nature Communications, 2023):
Each block holds one molecule with its values, some of them ahead of it.

How the values were obtained:
SPT-ORMDL3 complex [1] = target: T1, SPT-ORMDL3 complex (Homo sapiens, UniProt O15269+O15270+Q8N138, Q8N138:N13A); assay: DTNB CoA-release assay; format: biochemical; conditions: 10 mM L-serine, 100 μM palmitoyl-CoA, 25 μM PLP, pH 7.5, 37 °C
T1 construct: full-length subunits (ORMDL3-FL) co-expressed in HEK293F; N-terminal Flag tag on a subunit; purified in GDN; dimer of heterotetrameric protomers; with Serine palmitoyltransferase small subunit A
T1 sequence (Q8N138 whole entry N13A, one chain of several): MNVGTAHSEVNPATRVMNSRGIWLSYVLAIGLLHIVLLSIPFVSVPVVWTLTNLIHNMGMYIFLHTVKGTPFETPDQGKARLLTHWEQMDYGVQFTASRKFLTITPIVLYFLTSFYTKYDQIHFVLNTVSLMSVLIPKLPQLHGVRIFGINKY
T1 sequence (O15270 whole entry, one chain of several): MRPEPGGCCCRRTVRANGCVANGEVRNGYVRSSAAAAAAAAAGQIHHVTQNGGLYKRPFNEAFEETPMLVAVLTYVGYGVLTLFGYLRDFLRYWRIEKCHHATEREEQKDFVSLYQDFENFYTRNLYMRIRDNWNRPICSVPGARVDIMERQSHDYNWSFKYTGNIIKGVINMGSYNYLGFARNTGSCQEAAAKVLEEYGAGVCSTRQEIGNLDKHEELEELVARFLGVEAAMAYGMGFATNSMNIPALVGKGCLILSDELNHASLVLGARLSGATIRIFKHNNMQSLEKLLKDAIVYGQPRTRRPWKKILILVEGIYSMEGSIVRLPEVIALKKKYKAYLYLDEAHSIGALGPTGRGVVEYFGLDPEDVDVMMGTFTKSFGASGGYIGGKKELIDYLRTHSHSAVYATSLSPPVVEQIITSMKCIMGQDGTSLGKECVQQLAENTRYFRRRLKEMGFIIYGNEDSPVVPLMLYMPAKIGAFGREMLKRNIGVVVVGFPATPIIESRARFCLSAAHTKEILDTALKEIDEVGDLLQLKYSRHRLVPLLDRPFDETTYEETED
T1 sequence (O15269 whole entry, one chain of several): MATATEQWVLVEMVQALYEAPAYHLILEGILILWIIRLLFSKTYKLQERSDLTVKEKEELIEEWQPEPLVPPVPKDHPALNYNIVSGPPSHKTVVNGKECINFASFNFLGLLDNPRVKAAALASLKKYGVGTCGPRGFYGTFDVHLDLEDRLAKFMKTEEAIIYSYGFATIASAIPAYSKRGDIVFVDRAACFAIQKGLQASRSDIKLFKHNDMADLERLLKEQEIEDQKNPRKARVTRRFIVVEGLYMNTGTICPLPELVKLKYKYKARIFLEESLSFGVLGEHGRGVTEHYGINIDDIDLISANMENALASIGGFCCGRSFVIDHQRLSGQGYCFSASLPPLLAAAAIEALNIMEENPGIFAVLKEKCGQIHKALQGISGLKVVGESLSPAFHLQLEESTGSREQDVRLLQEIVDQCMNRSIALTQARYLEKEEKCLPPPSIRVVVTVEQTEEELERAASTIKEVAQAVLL

SPT-ORMDL3 complex [2] = target: T2, SPT-ORMDL3 complex (Homo sapiens, UniProt O15269+O15270+Q8N138, O15269:DEL40-41); assay: DTNB CoA-release assay; format: biochemical; conditions: 10 mM L-serine, 100 μM palmitoyl-CoA, 25 μM PLP, pH 7.5, 37 °C
T2 construct: full-length subunits (ORMDL3-FL) co-expressed in HEK293F; N-terminal Flag tag on a subunit; purified in GDN; dimer of heterotetrameric protomers; with Serine palmitoyltransferase small subunit A
T2 sequence (O15270 whole entry, stated change not applied, one chain of several): as the sequence (O15270 whole entry, one chain of several) above
T2 sequence (O15269 with tags, fused parts or gaps DEL40-41, one chain of several): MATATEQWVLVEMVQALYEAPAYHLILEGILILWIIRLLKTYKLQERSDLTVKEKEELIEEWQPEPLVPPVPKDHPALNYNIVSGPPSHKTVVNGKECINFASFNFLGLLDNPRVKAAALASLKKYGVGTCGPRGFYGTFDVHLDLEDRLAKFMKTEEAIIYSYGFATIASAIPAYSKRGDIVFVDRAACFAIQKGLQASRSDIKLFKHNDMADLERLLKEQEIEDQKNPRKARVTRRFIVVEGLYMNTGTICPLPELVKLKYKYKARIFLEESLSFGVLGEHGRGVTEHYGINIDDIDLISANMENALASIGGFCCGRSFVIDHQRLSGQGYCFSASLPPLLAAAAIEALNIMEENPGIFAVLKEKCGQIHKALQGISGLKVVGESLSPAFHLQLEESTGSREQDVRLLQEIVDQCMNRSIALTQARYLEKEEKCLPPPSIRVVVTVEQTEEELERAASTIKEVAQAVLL

SPT-ORMDL3 complex [3] = target: T3, SPT-ORMDL3 complex (Homo sapiens, UniProt O15269+O15270+Q8N138, Q8N138:F63P); assay: DTNB CoA-release assay; format: biochemical; conditions: 10 mM L-serine, 100 μM palmitoyl-CoA, 25 μM PLP, pH 7.5, 37 °C
T3 construct: full-length subunits (ORMDL3-FL) co-expressed in HEK293F; N-terminal Flag tag on a subunit; purified in GDN; dimer of heterotetrameric protomers; with Serine palmitoyltransferase small subunit A
T3 sequence (Q8N138 whole entry F63P, one chain of several): as the sequence (Q8N138 whole entry N13A, one chain of several) above, with A13N, F63P counted along it
T3 sequence (O15270 whole entry, one chain of several): as the sequence (O15270 whole entry, one chain of several) above
T3 sequence (O15269 whole entry, one chain of several): as the sequence (O15269 whole entry, one chain of several) above

SPT-ORMDL3 complex [4] = target: T4, SPT-ORMDL3 complex (Homo sapiens, UniProt O15269+O15270+Q8N138); assay: DTNB CoA-release assay; cryo-EM structure; format: biochemical
T4 construct: full-length subunits (ORMDL3-FL) co-expressed in HEK293F; N-terminal Flag tag on a subunit; purified in GDN; dimer of heterotetrameric protomers; with Serine palmitoyltransferase small subunit A
T4 sequence (O15270 whole entry, one chain of several): as the sequence (O15270 whole entry, one chain of several) above
T4 sequence (O15269 whole entry, one chain of several): as the sequence (O15269 whole entry, one chain of several) above

SPT-ORMDL3 complex [5] = target: T5, SPT-ORMDL3 complex (Homo sapiens, UniProt O15269+O15270+Q8N138, O15269:DEL39-39); assay: DTNB CoA-release assay; format: biochemical; conditions: 10 mM L-serine, 100 μM palmitoyl-CoA, 25 μM PLP, pH 7.5, 37 °C
T5 construct: full-length subunits (ORMDL3-FL) co-expressed in HEK293F; N-terminal Flag tag on a subunit; purified in GDN; dimer of heterotetrameric protomers; with Serine palmitoyltransferase small subunit A
T5 sequence (O15270 whole entry, stated change not applied, one chain of several): as the sequence (O15270 whole entry, one chain of several) above
T5 sequence (O15269 with tags, fused parts or gaps DEL39-39, one chain of several): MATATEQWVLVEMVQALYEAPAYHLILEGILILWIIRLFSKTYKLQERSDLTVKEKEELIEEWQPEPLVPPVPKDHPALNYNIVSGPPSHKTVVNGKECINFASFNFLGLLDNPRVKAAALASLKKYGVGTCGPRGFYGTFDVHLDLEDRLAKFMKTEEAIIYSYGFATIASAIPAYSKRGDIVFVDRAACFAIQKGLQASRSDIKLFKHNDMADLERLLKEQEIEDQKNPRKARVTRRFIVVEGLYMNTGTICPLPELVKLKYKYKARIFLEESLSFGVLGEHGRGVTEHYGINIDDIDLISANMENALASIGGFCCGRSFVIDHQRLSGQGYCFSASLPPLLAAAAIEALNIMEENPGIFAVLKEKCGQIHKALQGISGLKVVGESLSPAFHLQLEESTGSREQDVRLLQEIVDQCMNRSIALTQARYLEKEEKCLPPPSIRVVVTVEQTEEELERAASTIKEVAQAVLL

SPT-ORMDL3 complex [6] = target: T6, SPT-ORMDL3 complex (Homo sapiens, UniProt O15269+O15270+Q8N138, O15270:Y122A); assay: DTNB CoA-release assay; format: biochemical
T6 construct: full-length subunits (ORMDL3-FL) co-expressed in HEK293F; N-terminal Flag tag on a subunit; purified in GDN; dimer of heterotetrameric protomers; with Serine palmitoyltransferase small subunit A
T6 sequence (O15270 whole entry Y122A, one chain of several): as the sequence (O15270 whole entry, one chain of several) above, with Y122A counted along it
T6 sequence (O15269 whole entry, one chain of several): as the sequence (O15269 whole entry, one chain of several) above
Text: (§1) DTNB CoA-release assay on SPT-ORMDL3 complex | severely impaired for the former two variants, but largely sustained for the latter two variants

SPT-ORMDL3 complex [7] = target: T7, SPT-ORMDL3 complex (Homo sapiens, UniProt O15269+O15270+Q8N138, Q8N138:H85A); assay: DTNB CoA-release assay; format: biochemical
T7 construct: full-length subunits (ORMDL3-FL) co-expressed in HEK293F; N-terminal Flag tag on a subunit; purified in GDN; dimer of heterotetrameric protomers; with Serine palmitoyltransferase small subunit A
T7 sequence (Q8N138 whole entry H85A, one chain of several): as the sequence (Q8N138 whole entry N13A, one chain of several) above, with A13N, H85A counted along it
T7 sequence (O15270 whole entry, one chain of several): as the sequence (O15270 whole entry, one chain of several) above
T7 sequence (O15269 whole entry, one chain of several): as the sequence (O15269 whole entry, one chain of several) above
Text: as §1

SPT-ORMDL2 complex = target: T8, SPT-ORMDL2 complex (Homo sapiens, UniProt O15269+O15270+Q53FV1); assay: DTNB CoA-release assay; format: biochemical
T8 construct: full-length subunits co-expressed in HEK293F; N-terminal Flag tag on a subunit; purified in GDN; with Serine palmitoyltransferase small subunit A
T8 sequence (Q53FV1 whole entry, one chain of several): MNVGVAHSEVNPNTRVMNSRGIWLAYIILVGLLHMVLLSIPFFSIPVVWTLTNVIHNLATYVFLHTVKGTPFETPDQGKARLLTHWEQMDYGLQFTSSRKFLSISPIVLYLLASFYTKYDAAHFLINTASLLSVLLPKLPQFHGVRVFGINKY
T8 sequence (O15270 whole entry, one chain of several): as the sequence (O15270 whole entry, one chain of several) above
T8 sequence (O15269 whole entry, one chain of several): as the sequence (O15269 whole entry, one chain of several) above

SPT-ORMDL1 complex = target: T9, SPT-ORMDL1 complex (Homo sapiens, UniProt O15269+O15270+Q9P0S3); assay: DTNB CoA-release assay; format: biochemical
T9 construct: full-length subunits co-expressed in HEK293F; N-terminal Flag tag on a subunit; purified in GDN; with Serine palmitoyltransferase small subunit A
T9 sequence (Q9P0S3 whole entry, one chain of several): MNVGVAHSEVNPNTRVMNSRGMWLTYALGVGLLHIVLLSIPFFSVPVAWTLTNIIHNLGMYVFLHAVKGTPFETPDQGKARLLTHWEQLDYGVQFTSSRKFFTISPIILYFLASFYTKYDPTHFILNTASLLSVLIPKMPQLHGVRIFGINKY
T9 sequence (O15270 whole entry, one chain of several): as the sequence (O15270 whole entry, one chain of several) above
T9 sequence (O15269 whole entry, one chain of several): as the sequence (O15269 whole entry, one chain of several) above

SPT-ORMDL3 complex [8] = target: T4, SPT-ORMDL3 complex; assay: cryo-EM structure; LC-MS/MS of co-purified ceramides; format: binding; conditions: endogenous co-purified lipid; C24-ceramide fitted to a ceramide-like density, chain length not uniquely defined
[9] = target: T10, ORMDL3 (full-length, wild type) (human, UniProt Q8N138 1-153); assay: cryo-EM structure; single-particle cryo-EM of co-expressed and co-purified SPT-ORMDL3 complexes at ~18 mg/ml in 25 mM HEPES pH 7.5, 150 mM NaCl, 0.01% GDN; apo, or WT preincubated with 1 mM C6-ceramide on ice for 1 hr; conditions: both partners purified
T10 construct: ORMDL3, human, codon-optimized full-length cDNA in pCAG (new ORMDL3-FL plasmid without the 14 extra nucleotides upstream of the ORF); cDNAs were cloned 'with an N-terminal Flag tag or without a tag'; also called ORMDL3-FL; WT ORMDL3; source: HEK293F, transiently co-transfected with the SPT subunits, purified as a complex (anti-Flag resin, SEC, GDN)
T10 sequence (looked up): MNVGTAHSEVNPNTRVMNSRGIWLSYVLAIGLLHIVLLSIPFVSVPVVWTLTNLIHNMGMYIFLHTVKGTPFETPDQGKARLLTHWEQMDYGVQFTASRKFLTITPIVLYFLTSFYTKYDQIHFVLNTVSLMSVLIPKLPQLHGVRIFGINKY

IC50 (SPT-ORMDL3 complex [4]): 2200 nM
IC50 (SPT-ORMDL3 complex [6]): 6980 nM
IC50 (SPT-ORMDL3 complex [7]): 964 nM
IC50 (SPT-ORMDL2 complex): 980 nM
IC50 (SPT-ORMDL1 complex): 4070 nM
Molecule: CCCCCCCCCCCCC/C=C/[C@@H](O)[C@H](CO)NC(=O)CCCCC [C6-ceramide]
inhibition curve (SPT-ORMDL3 complex [1]): responses to C6-ceramide have been severely impaired for the former two variants
inhibition curve (SPT-ORMDL3 complex [2]): inhibition effect of C6-ceramide on all these SPTLC1 ALS variants was attenuated
inhibition curve (SPT-ORMDL3 complex [3]): responses to C6-ceramide have been severely impaired for the former two variants
inhibition curve (SPT-ORMDL3 complex [5]): inhibition effect of C6-ceramide on all these SPTLC1 ALS variants was attenuated

Molecule: CCCCCCCCCCCCC/C=C/[C@@H](O)[C@H](CO)NC(=O)CCCCCCCCCCCCCCCCCCCCCCC [C24-ceramide]
cryo-EM structure; LC-MS/MS of co-purified ceramides (SPT-ORMDL3 complex [8]): ceramide-like density in the apo SPT-ORMDL3 structure, which could be better fitted with C24-ceramide

binding result [9]: binds
B1: SPTssa (natural protein, human, UniProt Q969W0 1-71, looked up)
chain: MAGMALARAWKQMSWFYYQYLLVTALYMLEPWERTVFNSMLVSIVGMALYTGYVFMPQHIMAILHYFEIVQ
notes: serine palmitoyltransferase small subunit A (SPTssa), human, codon-optimized full-length cDNA; also called small SPT subunit; source: HEK293F, transiently co-transfected with the other subunits, purified as a complex (anti-Flag resin, SEC, GDN)
